# Data taken from US7378397B2 (The Provost, Fellows and Scholars of the College of the …, priority 2000, dated 2008).
# Entries after “also recorded” stand apart in the source; their conditions may differ. Where a SMILES comes first, the peptide text is derived from it. [ ]: non-standard residue; d: D form. pGlu = O=C1CC[C@@H](C(=O)O)N1; Pip = O=C(O)[C@@H]1CCCCN1
# Experiments:
# TRH-DE [1] = target: T1, TRH-DE (Sus scrofa, UniProt A0A287AP33); assay: continuous coupled fluorometric TRH-DE assay (TRHAMC substrate, DPP-IV coupling enzyme); assay type: biochemical, porcine; details: for inhibition at 1000 µM: peptide 1 mM, 5 μM TRHAMC substrate
# T1 construct: The inventor purified TRH-DE from porcine brain according to purification procedures previously published by Dr. K. Bauer; from tissue; host or cells: porcine brain (TRH-DE); bovine kidney (DPP-IV, gift from Dr. C. H. Williams)
# T1 sequence (A0A287AP33 1-1066): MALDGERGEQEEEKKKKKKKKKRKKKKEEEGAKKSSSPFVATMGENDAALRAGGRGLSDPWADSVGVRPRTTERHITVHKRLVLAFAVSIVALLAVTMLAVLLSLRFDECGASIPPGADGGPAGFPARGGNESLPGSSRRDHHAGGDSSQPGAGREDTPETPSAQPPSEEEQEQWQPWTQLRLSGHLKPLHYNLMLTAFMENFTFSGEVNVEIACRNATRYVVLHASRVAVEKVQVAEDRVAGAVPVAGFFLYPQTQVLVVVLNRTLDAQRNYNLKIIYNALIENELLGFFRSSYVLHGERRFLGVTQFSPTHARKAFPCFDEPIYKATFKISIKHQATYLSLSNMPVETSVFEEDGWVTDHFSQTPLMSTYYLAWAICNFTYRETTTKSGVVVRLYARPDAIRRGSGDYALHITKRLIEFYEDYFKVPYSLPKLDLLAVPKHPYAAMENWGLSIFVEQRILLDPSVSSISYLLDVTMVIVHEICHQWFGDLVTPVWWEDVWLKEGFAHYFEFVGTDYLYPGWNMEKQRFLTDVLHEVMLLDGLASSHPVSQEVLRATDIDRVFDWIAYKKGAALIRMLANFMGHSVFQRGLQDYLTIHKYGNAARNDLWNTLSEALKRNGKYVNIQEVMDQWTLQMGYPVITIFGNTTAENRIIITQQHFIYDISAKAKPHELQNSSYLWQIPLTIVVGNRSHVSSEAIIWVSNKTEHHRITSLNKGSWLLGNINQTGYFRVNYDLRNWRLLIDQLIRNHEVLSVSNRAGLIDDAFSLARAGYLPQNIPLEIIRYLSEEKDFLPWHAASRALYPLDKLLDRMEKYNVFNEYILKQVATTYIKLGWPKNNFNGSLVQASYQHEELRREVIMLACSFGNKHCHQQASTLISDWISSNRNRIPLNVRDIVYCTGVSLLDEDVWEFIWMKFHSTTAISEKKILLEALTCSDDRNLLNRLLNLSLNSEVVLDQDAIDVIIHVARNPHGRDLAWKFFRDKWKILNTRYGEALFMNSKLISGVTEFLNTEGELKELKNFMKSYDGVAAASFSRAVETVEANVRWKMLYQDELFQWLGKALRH
# Procedure: (§1) The inventor purified TRH-DE from porcine brain according to purification procedures previously published by Dr. K. Bauer, (Max-Planck-Institut, Hannover, Germany) (1). TRH-DE was purified almost 20,000 fold. […] Dipeptidyl peptidase IV (DPP-IV) (EC 3.4.14.5), purified from bovine kidney (7.7 mg ml^−1, specific activity of 17.5 U mg^−1 with Gly-ProAMC as substrate), was obtained as a gilt from Dr. C. H. Williams (Queen's University Belfast, U.K). (DPP-IV was used as the coupling enzyme used in the fluorometric assays).
# (§2) One unit (U) of enzyme activity was defined as that amount catalysing the formation of one μmol of product in one minute under the standard conditions employed. All incubations in the assays described below were carried out in 20 mM potassium phosphate buffer, pH 7.5, at 37° C.
# Kinetic analysis of peptides that are not hydrolysed by TRH-DE. A recently-developed continuous coupled fluorometric assay (23) was used to investigate the ability of those library peptides that were not hydrolysed by TRH-DE to inhibit TRHAMC degradation by TRH-DE. In this assay, TRHAMC is the substrate and dipeptidyl peptidase IV (DPP-IV) (EC 3.4.14.5) is the coupling enzyme. The reaction sequence is:
# The reaction was monitored continuously by measuring the increase in AMC fluorescence. A linear progress curve with no discernible lag period was observed when the reaction was monitored over a period of 10 minutes. Nevertheless, data sampling was not commenced until 100 s from the start of the reaction to ensure measurements were taken after a steady state had been reached (see Ref. 23).
# In a preliminary experiment, the peptides were screened for their ability to inhibit TRH-DE activity. The initial rate of TRHAMC hydrolysis by TRH-DE was measured by incubating 5 μM TRHAMC with 1.23 μg DPP-IV and 0.32 μg TRH-DE, both in the absence and presence of each library peptide (1 mM final concentration) under standard assay conditions (23). In each case the percentage inhibition (i%) was calculated using the equation i%=100(1-vi/vo), where vi and vo are the initial velocities in the presence and absence of peptide, respectively.
# Since these peptides were poor inhibitors they were not examined further. The Ki values for the remainder of the peptides were determined by measuring their effects on TRHAMC degradation by TRH-DE using the continuous assay. Data were collected in duplicate at five different substrate concentrations and at least three different concentrations of each peptide.
# Reversibility and time dependence of the inhibition produced by Glp-Gln-ProNH2, Glp-Asn-ProNH2 and Glp-Asn-ProAMC were examined by initially preincubating TRH-DE with each peptide at 37° C. for various periods up to 75 min. To investigate time dependence, the enzyme-peptide solution was subsequently added to the reaction mixture containing TRHAMC, DPP-IV, buffer and peptide, and TRH-DE activity was measured using the continuous assay. The final concentration of Glp-Gln-ProNH2, Glp-Asn-ProNH2 and Glp-Asn-ProAMC used was 400, 160 and 1 μM, respectively. […] TRH-DE activity was not affected by pre-incubation at 37° C.
# Fluorescence measurements were made using a Perkin Elmer LS 50B Luminescence Spectrometer fitted with a thernostated cell holder. Wavelengths for excitation and emission were set at 370 nm and 440 nm, respectively, with slit widths of 10 nm and 5 nm, respectively.
# TRH-DE [2] = target: T1, TRH-DE; assay: HPLC assay of peptide hydrolysis by TRH-DE (Glp production); assay type: biochemical, porcine; details: for Rate of hydrolysis: peptide 1 mM, 37° C., Glp production by HPLC, mean±S.D.; for hydrolysis by TRH-DE (release of Glp): 1 mM peptide incubated with TRH-DE 18 h at 37° C., HPLC
# Procedure: as §1, §2
# Kinetic analysis of the peptide library using HPLC—The ability of each peptide in the library to act as a TRH-DE substrate was assessed using HPLC. As an initial screen, 1 mM peptide was incubated with 0.8 μg TRH-DE in a total volume of 1 ml for 18 h at 37° C. Control samples were included in which peptide (1 mM) or Glp (0.2 mM-0.8 mM) were incubated under identical conditions in the absence of TRH-DE. TRH-DE activity was terminated by the addition of TFA (0.15% v/v) and samples were then analysed using HPLC as described previously (24). Products resulting from TRH-DE hydrolysis could be separated on a C-18 reverse-phase column (Hypersil, UK) using a linear gradient of 0-70% acetonitrile in 0.08% (v/v) TFA. The concentration of Glp formed by the action of TRH-DE on the peptide library was measured by UV absorbance at 206 nm with a quantitative detection limit of 0.1 mM for a 40 μl injection volume, employing a signal to noise ratio of 10. Following the incubation of each peptide with TRH-DE, evidence of Glp in the sample was taken to indicate that the peptide was a TRH-DE substrate.
# The rates of hydrolysis for each of those peptides identified as substrates were then compared by measuring Gip production using microassays with shorter incubation times. In these assays peptide (1 mM) was incubated at 37° C. in a total volume of 100 μl. 0.8-3.2 μg TRH-DE and incubations times of 5 min to 18 h were used routinely. Measurements were made in triplicate. The rate of TRH-OH hydrolysis was also measured by this method.
# [3] = from the percent inhibition (n = 3) in the presence of 5 μM substrate
# [4] = non-linear regression, five TRHAMC concentrations and at least three peptide concentrations, mean±S.D. (n=3)
# [5] = calculated from percent inhibition measured in duplicate at 5 μM substrate
molecule,measurement,setting,value
NC(=O)C[C@H](NC(=O)[C@@H]1CCC(=O)N1)C(=O)N1CCC[C@H]1C(=O)N[C@@H](Cc1c[nH]c2ccccc12)C(N)=O [Glp-Asn-Pro-Trp-NH2] ([pGlu]NPW-NH2),Ki,TRH-DE [1]; [3],5.17 µM
Glp-Ileu-ProNH2,Rate of hydrolysis,TRH-DE [2],0.06 ± 0.00 (4) U mg^−1
NC(=O)C[C@H](NC(=O)[C@@H]1CCC(=O)N1)C(=O)N1CCC[C@H]1C(=O)N[C@@H](Cc1c[nH]c2ccccc12)C(=O)N[C@@H](CO)C(=O)N[C@@H](Cc1ccc(O)cc1)C(N)=O [Glp-Asn-Pro-Trp-Ser-Tyr-NH2] ([pGlu]NPWSY-NH2),Ki,TRH-DE [1]; [3],8.11 µM
NC(=O)[C@@H]1CCCN1C(=O)[C@@H]1CCCCN1C(=O)[C@@H]1CCC(=O)N1 [Glp-homoPro-ProNH2] ([pGlu]-[Pip]-Pro-NH2),hydrolysis by TRH-DE (release of Glp),TRH-DE [2],No detectable Glp
same,Ki,TRH-DE [1]; [4],500 ± 133 µM
same,inhibition at 1000 µM,TRH-DE [1],40%
[pGlu]-Arg-Pro-NH2,Rate of hydrolysis,TRH-DE [2],0.41 ± 0.02 (4) U mg^−1
COc1ccc(Cl)cc1NC(=O)[C@@H]1CCCN1C(=O)[C@H](CC(N)=O)NC(=O)[C@@H]1CCC(=O)N1 [5-chloro-2-methoxy anilide],Ki,TRH-DE [1]; [5],9.95 µM
COc1ccccc1NC(=O)[C@@H]1CCCN1C(=O)[C@H](CC(N)=O)NC(=O)[C@@H]1CCC(=O)N1 [o-anisidide],Ki,TRH-DE [1]; [5],11.6 µM
NC(=O)CC[C@H](NC(=O)[C@@H]1CCC(=O)N1)C(=O)N1CCC[C@H]1C(N)=O [Glp-Gln-ProNH2] ([pGlu]-Gln-Pro-NH2),hydrolysis by TRH-DE (release of Glp),TRH-DE [2],not hydrolyzed at all; also recorded: No detectable Glp
same,Ki,TRH-DE [1]; [4],69 ± 4.4 µM
same,inhibition at 1000 µM,TRH-DE [1],83%
same,reversibility and time dependence of inhibition,"TRH-DE [1]; preincubation with TRH-DE up to 75 min at 37° C., Glp-Gln-ProNH2 400, Glp-Asn-ProNH2 160, Glp-Asn-ProAMC 1 μM",fully reversible and not time-dependent
[pGlu]-Val-Pro-NH2,Rate of hydrolysis,TRH-DE [2],0.05 ± 0.00 (3) U mg^−1
Glp-NorVal-ProNH2,Rate of hydrolysis,TRH-DE [2],0.04 ± 0.00 (6) U mg^−1
NC(=O)C[C@H](NC(=O)[C@@H]1CCC(=O)N1)C(=O)N1CCC[C@H]1C(=O)N[C@@H](Cc1ccc(O)cc1)C(=O)N[C@@H](Cc1c[nH]c2ccccc12)C(N)=O [Glp-Asn-Pro-Tyr-Trp-NH2] ([pGlu]NPYW-NH2),Ki,TRH-DE [1]; [3],0.78 µM
COc1cccc(NC(=O)[C@@H]2CCCN2C(=O)[C@H](CC(N)=O)NC(=O)[C@@H]2CCC(=O)N2)c1 [m-anisidide],Ki,TRH-DE [1]; [5],0.86 µM
NC(=O)C[C@H](NC(=O)[C@@H]1CCC(=O)N1)C(=O)N1CCC[C@H]1C(=O)Nc1ccccc1O,Ki,TRH-DE [1]; [5],6.62 µM
[pGlu]-Lys-Pro-NH2,Rate of hydrolysis,TRH-DE [2],0.46 ± 0.02 (3) U mg^−1
NC(=O)[C@@H]1CCCN1C(=O)[C@H](Cc1ccc(O)cc1)NC(=O)[C@@H]1CCC(=O)N1 [Glp-Tyr-ProNH2] ([pGlu]-Tyr-Pro-NH2),Rate of hydrolysis,TRH-DE [2],0.66 ± 0.04 (5) U mg^−1
[pGlu]-Cys-Pro-NH2,hydrolysis by TRH-DE (release of Glp),TRH-DE [2],no detectable cleavage
NC(=O)C[C@H](NC(=O)[C@@H]1CCC(=O)N1)C(=O)N1CCC[C@H]1C(=O)Nc1cccc2c1CCCC2,Ki,TRH-DE [1]; [5],9.31 µM
[pGlu]-Ala-Pro-NH2,hydrolysis by TRH-DE (release of Glp),TRH-DE [2],not completely degraded; also recorded: only partially degraded
same,Glp produced,"TRH-DE [2]; 1 mM peptide, overnight incubation with TRH-DE",0.2 mM
same,Rate of hydrolysis,TRH-DE [2],0.02 ± 0.00 (3) U mg^−1
